Source: patent publication US20240044921A1, “METHOD FOR EVALUATING BLOOD COAGULATION PERFORMANCE, AND METHOD FOR INSPECTING RISK OF THROMBOSIS” (FUJIMORI KOGYO CO., LTD., priority 2020, published 2024)

Tested on: whole blood
Experiment: ROTEM blood coagulation analysis, blood collection tube with rubber stopper, Example 3
Format: cell-based, human
Conditions: heparan sulfate 1 μg/mL with calcium chloride, CTI 20 μg/mL, PKSI-527 40 μM (reagent (2))
Description: The present invention will be more specifically described below by referring to Examples, but the present invention is not limited to the embodiments below. The blood samples used in the Examples were collected from healthy humans unless otherwise described.
ROTEM (IL) was used to analyze blood coagulation.
Blood was collected using a blood collection tube (2 mL) containing 3.2% sodium citrate manufactured by Becton, Dickinson and Company. A rubber stopper is used for this blood collection tube. […]

Substance: heparan sulfate
- coagulation-promoting effect of the rubber stopper: can be inhibited
